Consider seven compounds from patent US20230270816A1, “COMBINATION OF ANTINEOPLASTIC ANTIBIOTICS AND BCL-2 INHIBITORS FOR THE TREATMENT OF NPM-1-DRIVEN ACUTE MYELOID LEUKEMIA (AML)” (INSERM (INSTITUTE NATIONAL DE LA SANTÉ ET DE LA RECHERCHE …, priority 2020, published 2023).

Read-outs that look alike come from different tables or passages of the source. Starred links: 1 amine or outer side, 2 acyl side, 3 side chain; linkers in the order of their positions; H or OH if unused. Positions of bridges follow the written chain, without caps; N, C: chain ends. Non-standard residues stand in square brackets, D forms with d. Residues, ends and D or L forms follow the SMILES beside them. Chains are numbered I, II in the order given. Actinocin(9to1) = Cc1c2oc3c(C)ccc(C(=O)[*:1])c3nc-2c(C(=O)[*:2])c(N)c1=O; NMeV = CN[C@H](C(=O)O)C(C)C; Sar = CNCC(=O)O A value given as a limit tells only on which side of the number the result lay.

For one data set, the system named is PML NBs. Briefly: PML nuclear body (NB) reformation ex vivo. The following applies: for effect of ROS scavenger on ActD NB-restoration: AML2-NPM1c cells. In kind it is cell-based. From the text: (§1) Conversely, we used Thenoyl-trifluoroacetone (TTFA) a well-characterized inhibitor of mitochondrial complex II and major inducer of ROS.
The subject of data set [1] is AML3 cells. The experiment in a line: Mitochondrial network and function in AML3 cells. In kind it is cell-based.
From the text: as §1

Data set [2] deals with AML3 cells. The experiment in a line: Senescence markers and clonogenic activity in AML3 cells. In kind it is cell-based. The following applies: for clonogenic activity: AML3 cells.
From the text: as §1

For data set [3], the system named is TP53.
For a further data set, the system named is leukemic blasts. The experiment in a line: AML patient treated with a single ActD course. In kind it is in vivo.
In the next data set the target is T1, complex II (Homo sapiens, UniProt P31040).
T1 construct: endogenous in cells; host or cells: NPM1c-expressing cells (not further specified; the same paragraph mentions AML3, AML2-NPM1c and NPM1c-ES cells)
Briefly: Electron transport chain complex activity. The format is biochemical. Conditions: but not complex I or IV; primarily in NPM1c-expressing cells.

In data set [4] the test system is primary human NPM1c-AML blasts. The experiment in a line: Immune-deficient mice xenografted with primary human NPM1c-AML blasts. The format is in vivo. The text has this: FIG. 2: ActD enhances Venetoclax anti-leukaemic effects. Response to ActD and/or Venetoclax in a transplantable AML model initiated by NPM1c+IDH1^R132H mutation. A, GFP abundance in bone marrow samples collected at treatment interruption and B, survival curve, n=2. C, abundance of human AML cells in xenografted mice treated for two weeks. Combined therapy induces AML regression.
(§2) We first assessed ActD response in primary cells.
(§3) We therefore explored the ActD/Venetoclax interaction in different NPM1c-driven AML models in vivo. […] Thus, ActD and Venetoclax dramatically synergized to clear AMLs in vivo.

For a further data set, the system named is NPM1c-AML. Conditions: Half of NPM1c-AML patients; single agent; cited from earlier work.
The test system of the next data set is murine NPM1c-driven AML. The experiment in a line: Murine NPM1c-driven AML model. Conditions: mouse, in vivo.
From the text: as §2, §3

A further data set concerns AML2-NPM1c cells. The experiment in a line: Growth of isogenic AML2-NPM1c / AML2-NPM1 cells. The format is cell-based. Conditions: AML2-NPM1c vs AML2-NPM1 cells; inhibition of JAK1/2 signalling. The text has this: TFAM reduction may reflect transcriptional down-regulation of PGC1A by IFN signalling^16. Importantly, stable NPM1c expression drove PGC1α hyperacetylation resulting in its functional inactivation, possibly through PML NB downregulation (data not shown)^10. These altered mitochondria and release of mtDNA into the cytoplasm activate multiple downstream intracellular stress pathway, particularly IFN and NFKB targets (data not shown), at least in part through cGAS (cyclic GMP-AMP synthase) activation and cGAMP production (data not shown). Other stress pathways, such as oxidative stress or unfolded protein response were also activated (data not shown), resulting in decreased protein synthesis (data not shown). Western blot analyses comparing AML2-NPM1c to AML2-NPM1 cells validated activation of multiple stress pathways by the NPM1c oncogene, including the up-regulation of key TP53-repressed metabolic enzymes (data not shown). As expected, these mitochondrial alterations yielded decreased ATP/ADP+AMP or GTP/GDP+GMP ratios, reflecting metabolic stress (data not shown). Stress responses could directly or indirectly favour leukaemogenesis^20-22. […] These mitochondrial defects may constitute targetable intrinsic weaknesses and, for example, account for the exquisite clinical sensitivity of NPM1c-AMLs to Bcl2 antagonists^23.

The subject of data set [5] is TP53. The experiment in a line: Doxorubicin mitochondrial rounding and TP53 activation. The format is cell-based. The text has this: Targeting mitochondrial function by antibiotics was proposed as a therapeutic option for cancer^35,36 and mitochondrial status modulates chemotherapy response^37,38. Actinomycin D drives mitochondrial alterations prior to detectable activation of the ribosomal or DNA damage checkpoints. Actinomycin D inhibits complex II activity, which may reflect its structural similarity with FAD, one of its electron transporters. This may explain how ActD induces ROS, immediate early response genes, sensitizes cells to apoptosis or initiates immunogenic cell death^39. Complex II is important in hematopoietic progenitors^40, and regulated by PML^41, contributing to ActD therapeutic index in AML blasts. In vivo, ActD triggered features of mitochondria-induced senescence^26. Downstream of acute mitochondrial stress, our experiments reveal a key role of ROS signalling and PML/TP53 senescence (data not shown), drawing an unexpected similarity with acute promyelocytic leukemia, where NBs reformation drive response to arsenic therapy^12,42. In that respect, complex II poisoning has activity in APL models^43. […] Clinically, as both antineoplastic antibiotics (e.g. ActD) and BCL-2 inhibitors (e.g. Venetoclax) have remarkable clinical activity in NPM1c-AMLs, the dramatic synergy outlined here should rapidly be evaluated in patients.

Setting [6] is: leukemic blasts from peripheral blood.

T1 sequence (P31040 43-664): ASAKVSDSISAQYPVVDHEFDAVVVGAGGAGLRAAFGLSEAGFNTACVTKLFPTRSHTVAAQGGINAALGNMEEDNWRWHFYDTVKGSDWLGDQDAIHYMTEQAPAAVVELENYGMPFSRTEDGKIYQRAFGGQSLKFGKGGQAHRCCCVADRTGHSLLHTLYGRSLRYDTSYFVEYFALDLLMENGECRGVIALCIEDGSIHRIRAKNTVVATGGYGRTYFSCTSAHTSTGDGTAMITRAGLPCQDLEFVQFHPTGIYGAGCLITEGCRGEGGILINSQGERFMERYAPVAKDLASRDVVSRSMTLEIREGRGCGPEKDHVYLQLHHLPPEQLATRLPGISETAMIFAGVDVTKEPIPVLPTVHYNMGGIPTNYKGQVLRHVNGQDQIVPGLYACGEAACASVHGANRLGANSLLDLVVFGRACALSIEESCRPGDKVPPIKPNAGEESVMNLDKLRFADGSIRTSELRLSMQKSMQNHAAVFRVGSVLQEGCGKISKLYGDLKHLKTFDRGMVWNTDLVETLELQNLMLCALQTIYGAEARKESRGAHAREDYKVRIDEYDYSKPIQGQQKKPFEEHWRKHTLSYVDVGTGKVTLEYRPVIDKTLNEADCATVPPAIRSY
T1 sequence (P21912 29-280 partner): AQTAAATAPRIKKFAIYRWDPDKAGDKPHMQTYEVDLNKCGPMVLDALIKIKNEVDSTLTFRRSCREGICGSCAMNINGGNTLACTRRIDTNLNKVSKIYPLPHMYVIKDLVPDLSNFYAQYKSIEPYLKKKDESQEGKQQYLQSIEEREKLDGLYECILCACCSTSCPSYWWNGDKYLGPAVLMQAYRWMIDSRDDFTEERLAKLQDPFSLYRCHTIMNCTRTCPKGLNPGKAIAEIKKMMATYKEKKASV
T1 sequence (Q99643 30-169 partner): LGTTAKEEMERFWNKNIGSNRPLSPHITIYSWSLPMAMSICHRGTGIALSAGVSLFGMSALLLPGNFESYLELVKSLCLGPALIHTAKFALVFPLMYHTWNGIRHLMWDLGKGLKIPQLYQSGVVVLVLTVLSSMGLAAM
T1 sequence (O14521 57-159 partner): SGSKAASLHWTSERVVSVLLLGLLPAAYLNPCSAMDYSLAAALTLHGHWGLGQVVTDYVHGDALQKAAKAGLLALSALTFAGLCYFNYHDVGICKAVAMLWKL

Regarding `O=C(CC(=O)C(F)(F)F)c1cccs1` [TTFA, Thenoyl-trifluoroacetone], in the data set on PML NBs (NPM1c-transfected stable GFP-PML-III MEFs), the NB formation entry is “restored NB formation”. In the data set with AML3 cells [1] (AML3 cells), the mitochondrial superoxide result is listed as “massively induced mitochondrial superoxide”. Further, the clonogenic activity entry with AML3 cells [2] was “decreased clonogenic activity”.
With `Cc1c2oc3c(C)ccc(C(=O)N[C@@H]4C(=O)N[C@H](C(C)C)C(=O)N5CCC[C@H]5C(=O)N(C)CC(=O)N(C)[C@@H](C(C)C)C(=O)O[C@@H]4C)c3nc-2c(C(=O)N[C@@H]2C(=O)N[C@H](C(C)C)C(=O)N3CCC[C@H]3C(=O)N(C)CC(=O)N(C)[C@@H](C(C)C)C(=O)O[C@@H]2C)c(N)c1=O` [ActD, actinomycin D] (I: T[dV]P[Sar][NMeV] / II: T[dV]P[Sar][NMeV]; ester I:1-I:C, II:1-II:C; linker I:N-II:N via Actinocin(9to1)), the “PML NB reformation” value in the data set with PML NBs (AML2-NPM1c, AML3 cells or NPM1c-transfected MEFs) is recorded as “very rapid NB reformation”. Besides, in the data set on PML NBs (primary NPM1c-AML blasts treated ex vivo), the “PML NB restoration” value is on record as “PML NB restoration was also observed”. The TP53 activation result in the data set on TP53 [3] (AML3 cells, ex vivo, 5 nM) is “triggered rapid TP53 activation”. Further, the TP53 stabilization entry in the data set with TP53 [3] (normal bone marrow progenitors in vivo or ex vivo, human or mouse primary fibroblasts (WI-38, MEFs) ex vivo, low doses) is “no significant TP53 stabilization”. In the data set with leukemic blasts (after a single course of daily ActD injections for 5 days), the blast decrease was 10^4 fold. In the data set with leukemic blasts (setting [6]), the “completion of in vivo reformation of PML NBs” value is not above 12 h and the “start of in vivo reformation of PML NBs” value was found to be 6 h. Also, the “complex II activity” value on complex II is “further inhibited the basal low level of complex II”. Also, in the data set with AML3 cells [1] (AML3 and NPM1c-ES cells, as early as 1h), the mitochondrial network result was “fragmented the mitochondrial network”. Moreover, the leukemic burden result in [4] (after 5 days of ActD therapy) is “dramatically reduced the leukemic burden”. For the same compound, the “stabilization of human TP53 vs mouse Trp53” value in [4] (two xenografted mice) is reported as “rapidly triggered selective stabilization of human TP53”. The clinical response entry in the data set with NPM1c-AML was “dramatic responses”. In the data set with AML3 cells [2], the clonogenic activity result is reported as “loss of clonogenic activity”. Further, the “senescence signs (TP53 activation, p21, Serpine-1, cGAMP, SA-β-Gal)” value in the data set on AML3 cells [2] (NPM1c-positive AML3 cells) is “multiple signs of senescence”. The “AML response with leukaemia-selective TP53 activation” value with murine NPM1c-driven AML is “AML regression and blast differentiation”.
As to venetoclax, in the data set on AML3 cells [1] (AML3 cells, Venetoclax alone), the mitochondrial effects result is “induced mitochondrial fragmentation, reduction of mitochondrial membrane potential, production of ROS and leakage of mtDNA to the cytoplasm”.
As for `N#CCNC(=O)c1ccc(-c2ccnc(Nc3ccc(N4CCOCC4)cc3)n2)cc1` [CYT387], the growth entry in the data set with AML2-NPM1c cells was “inhibited growth, more potently in AML2-NPM1c than in AML2-NPM1 cells”.
Consider `CC(=O)N[C@@H](CS)C(=O)O` [N-acetyl cysteine], for which the “effect of ROS scavenger on ActD NB-restoration” value in the data set with PML NBs is “completely blocked”.
For the compound `COc1cccc2c1C(=O)c1c(O)c3c(c(O)c1C2=O)C[C@@](O)(C(=O)CO)C[C@@H]3O[C@H]1C[C@H](N)[C@H](O)[C@H](C)O1` [Doxorubicin], in the data set on TP53 [5], the TP53 activation entry is “PML-dependent, NPM1c-enhanced and NAC-reversible TP53 activation”; the mitochondrial morphology result is given as “triggered immediate mitochondrial rounding”.
As to `N[C@@H](CCC(=O)N[C@@H](CS)C(=O)NCC(=O)O)C(=O)O` [glutathione], the “effect of ROS scavenger on ActD NB-restoration” value with PML NBs was “completely blocked”.
